Measurements from PubChem BioAssay AID2060487 (Molecular Pharmacology Branch, DTP, NCI, 2025).

Tested on: 997537-175-T-J1-PDC complex spheroid viability
Test: Anticancer human tumor 997537-175-T-J1-PDC patient-derived colon adenocarcinoma cell line growth inhibition [GQUAD]
Settings: for IC50: curve of first compound; for viability, T/C: stronger effect = lower value
How it was run: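 Tumor cells were grown as complex spheroids with HUVEC endothelial cells and mesenchymal stem cells as stroma. G-quadruplex stabilizers were combined with targeted agents over half-log dilutions from near the clinical Cmax, or from 10 microM.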

[1] = second compound 0.0316 µM, first compound 0.0316 µM
[2] = second compound 0.0316 µM, first compound 0.1 µM
[3] = second compound 0.0316 µM, first compound 0.316 µM
[4] = second compound 0.0316 µM, first compound 1 µM
[5] = second compound 0.0316 µM, first compound 3.16 µM
[6] = second compound 0.0316 µM, first compound 10 µM
[7] = second compound 0.1 µM, first compound 0.0316 µM
[8] = second compound 0.1 µM, first compound 0.1 µM
[9] = second compound 0.1 µM, first compound 0.316 µM
[10] = second compound 0.1 µM, first compound 1 µM
[11] = second compound 0.1 µM, first compound 3.16 µM
[12] = second compound 0.1 µM, first compound 10 µM
[13] = second compound 0.316 µM, first compound 0.0316 µM
[14] = second compound 0.316 µM, first compound 0.1 µM
[15] = second compound 0.316 µM, first compound 0.316 µM
[16] = second compound 0.316 µM, first compound 1 µM
[17] = second compound 0.316 µM, first compound 3.16 µM
[18] = second compound 0.316 µM, first compound 10 µM
[19] = second compound 1 µM, first compound 0.0316 µM
[20] = second compound 1 µM, first compound 0.1 µM
[21] = second compound 1 µM, first compound 0.316 µM
[22] = second compound 1 µM, first compound 1 µM
[23] = second compound 1 µM, first compound 3.16 µM
[24] = second compound 1 µM, first compound 10 µM
[25] = second compound 3.16 µM, first compound 0.0316 µM
[26] = second compound 3.16 µM, first compound 0.1 µM
[27] = second compound 3.16 µM, first compound 0.316 µM
[28] = second compound 3.16 µM, first compound 1 µM
[29] = second compound 3.16 µM, first compound 3.16 µM
[30] = second compound 3.16 µM, first compound 10 µM
[31] = second compound 10 µM, first compound 0.0316 µM
[32] = second compound 10 µM, first compound 0.1 µM
[33] = second compound 10 µM, first compound 0.316 µM
[34] = second compound 10 µM, first compound 1 µM
[35] = second compound 10 µM, first compound 3.16 µM
[36] = second compound 10 µM, first compound 10 µM
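Also: spheroids exposed to the agents for 7 days.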
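For viability, T/C in this document: 100% = DMSO vehicle control viability.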

In the case of `CC(C)n1c(=O)n(C)c2cnc3cc(F)c(-c4ccc(OCCCN5CCCCC5)nc4)cc3c21` + CN(C)c1ccc(Nc2c3ccc(NC(=O)CCN4CCCC4)cc3nc3cc(NC(=O)CCN4CCCC4)ccc23)cc1, the IC50 (second compound 0.0316 µM) is reported as over 10 µM, the IC50 (second compound 0.1 µM) is reported as over 10 µM and the IC50 (second compound 0.316 µM) is reported as over 10 µM. It also gave an IC50 (second compound 1 µM) of over 10 µM, an IC50 (second compound 3.16 µM) of over 10 µM and an IC50 (second compound 10 µM) of over 10 µM. The viability, T/C [1] was 104%, the viability, T/C [2] was 91.2% and the viability, T/C [3] was 101%. For the same compound, the viability, T/C [4] was 87%, the viability, T/C [5] was 83% and the viability, T/C [6] was 108%. It also gave a viability, T/C [7] of 93.8%, a viability, T/C [8] of 86% and a viability, T/C [9] of 104%. It also gave a viability, T/C [10] of 64%, a viability, T/C [11] of 96.2% and a viability, T/C [12] of 98.7%. It also gave a viability, T/C [13] of 98.4%, a viability, T/C [14] of 81.9% and a viability, T/C [15] of 95.9%. For the same compound, the viability, T/C [16] was 82.7%, the viability, T/C [17] was 93.7% and the viability, T/C [18] was 95.2%. The viability, T/C [19] was 76%, the viability, T/C [20] was 89.8% and the viability, T/C [21] was 88.9%. For the same compound, the viability, T/C [22] was 93.8%, the viability, T/C [23] was 92% and the viability, T/C [24] was 95%. It also gave a viability, T/C [25] of 74.3%, a viability, T/C [26] of 85.4% and a viability, T/C [27] of 91.7%. For the same compound, the viability, T/C [28] was 104%, the viability, T/C [29] was 106% and the viability, T/C [30] was 93.3%. For the same compound, the viability, T/C [31] was 86.6%, the viability, T/C [32] was 71.7% and the viability, T/C [33] was 103%. It also gave a viability, T/C [34] of 96.7%, a viability, T/C [35] of 103% and a viability, T/C [36] of 98.4%.
`Cc1cccc(N(C)C(=O)C2C(O)CCN2c2nc(C)cc(C(F)(F)F)c2C#N)c1` (stereo unspecified) + Cc1[nH]c2ccc(F)cc2c1-c1nc2c3cccnc3c3ncccc3c2[nH]1 gave an IC50 (second compound 0.0316 µM) of over 10 µM, an IC50 (second compound 0.1 µM) of over 10 µM and an IC50 (second compound 0.316 µM) of over 10 µM. The IC50 (second compound 1 µM) was over 10 µM, the IC50 (second compound 3.16 µM) was over 10 µM and the IC50 (second compound 10 µM) was over 10 µM. The viability, T/C [1] was 104%, the viability, T/C [2] was 82.7% and the viability, T/C [3] was 107%. For the same compound, the viability, T/C [4] was 75.4%, the viability, T/C [5] was 85.6% and the viability, T/C [6] was 96%. It also gave a viability, T/C [7] of 101%, a viability, T/C [8] of 97.8% and a viability, T/C [9] of 96%. It also gave a viability, T/C [10] of 80.1%, a viability, T/C [11] of 99% and a viability, T/C [12] of 90.6%. It also gave a viability, T/C [13] of 101%, a viability, T/C [14] of 74% and a viability, T/C [15] of 92.8%. It also gave a viability, T/C [16] of 95%, a viability, T/C [17] of 100% and a viability, T/C [18] of 106%. The viability, T/C [19] was 79.4%, the viability, T/C [20] was 95.3% and the viability, T/C [21] was 108%. It also gave a viability, T/C [22] of 85.4%, a viability, T/C [23] of 104% and a viability, T/C [24] of 92.7%. The viability, T/C [25] was 57.9%, the viability, T/C [26] was 89.9% and the viability, T/C [27] was 76.9%. The viability, T/C [28] was 79.2%, the viability, T/C [29] was 69% and the viability, T/C [30] was 85.6%. The viability, T/C [31] was 80.5%, the viability, T/C [32] was 93.8% and the viability, T/C [33] was 80.6%. For the same compound, the viability, T/C [34] was 76.8%, the viability, T/C [35] was 105% and the viability, T/C [36] was 95.6%.
`C=CC(=O)N1CCN(c2nc(=O)n(-c3c(C)ccnc3C(C)C)c3nc(-c4c(O)cccc4F)c(F)cc23)C(C)C1` (stereo unspecified) + CN(C)c1ccc(Nc2c3ccc(NC(=O)CCN4CCCC4)cc3nc3cc(NC(=O)CCN4CCCC4)ccc23)cc1 showed an IC50 (second compound 0.0316 µM) of over 10 µM, an IC50 (second compound 0.1 µM) of over 10 µM and an IC50 (second compound 0.316 µM) of over 10 µM. For the same compound, the IC50 (second compound 1 µM) was over 10 µM, the IC50 (second compound 3.16 µM) was over 10 µM and the IC50 (second compound 10 µM) was over 10 µM. It also gave a viability, T/C [1] of 103%, a viability, T/C [2] of 99.2% and a viability, T/C [3] of 86.6%. The viability, T/C [4] was 68.8%, the viability, T/C [5] was 70.6% and the viability, T/C [6] was 85.6%. For the same compound, the viability, T/C [7] was 87.7%, the viability, T/C [8] was 88.4% and the viability, T/C [9] was 93.5%. The viability, T/C [10] was 82.1%, the viability, T/C [11] was 95.7% and the viability, T/C [12] was 89.8%. It also gave a viability, T/C [13] of 90.7%, a viability, T/C [14] of 98.5% and a viability, T/C [15] of 88.7%. For the same compound, the viability, T/C [16] was 77.5%, the viability, T/C [17] was 92.4% and the viability, T/C [18] was 74.7%. For the same compound, the viability, T/C [19] was 89.5%, the viability, T/C [20] was 93.1% and the viability, T/C [21] was 97.7%. It also gave a viability, T/C [22] of 67.9%, a viability, T/C [23] of 104% and a viability, T/C [24] of 96.2%. The viability, T/C [25] was 69.1%, the viability, T/C [26] was 81.1% and the viability, T/C [27] was 91.2%. For the same compound, the viability, T/C [28] was 83.5%, the viability, T/C [29] was 97.6% and the viability, T/C [30] was 81.2%. The viability, T/C [31] was 77%, the viability, T/C [32] was 85.7% and the viability, T/C [33] was 91.2%. It also gave a viability, T/C [34] of 98.4%, a viability, T/C [35] of 91.2% and a viability, T/C [36] of 93.9%.
